# From patent US20070078085A1, “Methods and compositions for the utilization and targeting of osteomimicry” (priority 2004, published 2007)
# d = 2'-deoxy (DNA)
# Columns and labels:
# [1] = test system: b2M; test: b2M expression in C4-2B clones after siRNA; format: cell-based, human; settings: Neo and b2M-overexpressed C4-2B clones
# Method: Total RNA was isolated from the confluent monolayer of cells using RNAZol B (Teltest Inc., Friendswood, Tex.). The total RNA was used as template for RT according to the manufacturer's instruction (Invitrogen). […] RT-PCR products were analyzed by 1.2% agarose gel electrophoresis.
# (§1) Western blotting was performed using the NOVEX system (Invitrogen). […] Detection of protein bands was performed with ECL Western Boltting Detection Reagents (Amersham Biosciences Corp.).
# The β2M- and control scramble-siRNA sequences were 5′-[…](dT)(dT)-3′ and 5′-[…](dT)(dT)-3′, respectively. For RNA delivery system, we used cationic liposome formulation, termed SN {Zou, 2002#68} to deliver β2M- and scramble-siRNA into cell lines or mice. The ratio of siRNA (μg) to SN (μl) was 1:24. […] To assay of anti-tumor activity of β2M-siRNA therapeutic efficacy, the real-time bioluminescence image by the CCD camera cryogenically cooled IVIS system with analysis software (Xenogen Corp., Alameda Calif.) (Ref) and serum PSA levels were used to monitored PC3-Luc and C4-2 tumor burden in nude mice.
# [2] = test system: human prostate cancer cell lines; test: In vitro cell proliferation assay, prostate cancer cells; format: cell-based; settings: for cell proliferation: Neo and b2M-overexpressed C4-2B clones, siRNA
# Method: LNCaP, C4-2B, DU145, PC3, MG63 and ARCaP cell lines were seeded in 96-well plates in T-medium containing 5% FBS, respectively. After 24 h incubation, media were replaced by fresh, serum-free T-medium and incubated for an additional 24 h. […] Cell numbers were measured every 24 h using CellTiter 96® AQueous One Solution Cell Proliferation Assay (Promega, Madison, Wis.).
# [3] = test system: PC3-Luc tumor; test: Subcutaneous bone powder PC3-Luc tumors, intratumoral siRNA-liposome, bioluminescence imaging; format: in vivo, athymic nu/nu mice; settings: intratumoral 0.8 μg siRNA three-time per week, four weeks, 28 days
# Description: (§2) The β2M- and control scramble-siRNA sequences were 5′-[…](dT)(dT)-3′ and 5′-[…](dT)(dT)-3′, respectively. For RNA delivery system, we used cationic liposome formulation, termed SN {Zou, 2002#68} to deliver β2M- and scramble-siRNA into cell lines or mice. The ratio of siRNA (μg) to SN (μl) was 1:24. To test prostate tumor growth inhibition by β2M-siRNA, four weeks old male athymic nu/nu mice were inoculated into the subcutaneous space of the chest regions with 2×10^6 cells of PC3-Luc or C4-2 mixed with 20 mg of bone powder (kindly provided by Dr. A. H. Reddi, University of California, Davis, Sacramento, Calif.) and 35 μl of Matrigel matrix (BD Bioscience, Bedford Mass.), respectively. Three (PC3-Luc) or four (C4-2) weeks later, the tumor-bearing mice were randomly divided into two groups. The mice in the treatment group received intratumoral injection of SN-β2M-siRNA for three-time per week continuously four weeks, at a dose of 0.8 μg of siRNA mixed with 19.2 μl of SN for each mouse. The control group injected with the same dose of SN-scramble-siRNA. To assay of anti-tumor activity of β2M-siRNA therapeutic efficacy, the real-time bioluminescence image by the CCD camera cryogenically cooled IVIS system with analysis software (Xenogen Corp., Alameda Calif.) (Ref) and serum PSA levels were used to monitored PC3-Luc and C4-2 tumor burden in nude mice.
# [4] = test system: PSA; test: Western blot of PSA in siRNA-infected C4-2B cells; format: cell-based, human; settings: retrovirally infected C4-2B cells
# Method: (§3) FIG. 14. Western blot analysis of parental C4-2B (P), b2M-siRNA (siRNA) and scramble-siRNA (Scramble) retrovirally infected cells. Note AR and PSA expression were abolished by b2M-siRNA in C4-2B cells. EFIa was used as loading control.
# as §1
# [5] = test system: C4-2-Luc tumor; test: Subcutaneous bone powder C4-2-Luc tumors, intratumoral siRNA-liposome, serum PSA; format: in vivo, athymic nu/nu mice; settings: intratumoral 0.8 μg siRNA three-time per week, four weeks, 28 days
# Description: as §2
# [6] = test system: AR; test: Western blot of AR in siRNA-infected C4-2B cells; format: cell-based, human; settings: retrovirally infected C4-2B cells
# Method: as §3, §1
# [7] = test system: C4-2B cells; test: Adhesion assay on ECM-coated 96-well plates; format: cell-based, human; settings: β2M siRNA vs scramble siRNA
# Description: FIG. 13. Adhesion assay of b2M-siRNA and scramble-siRNA infected C4-2B cells using 96-well plate pre-coated with Col I, LM, FN and Col IV. BSA was used as control (Con). *, p<0.05, **, p<0.005.
# Cell attachment to BSA coated wells served as an internal control (Con).
# [8] = test system: OC mRNA; test: Semi-quantitative RT-PCR of endogenous OC mRNA; format: cell-based, human; settings: FSK 10^−6 M, 12 h
# Method: (§4) Reverse Transcription-Polymerase Chain Reaction (RT-PCR) Analysis. Total RNA was isolated from confluent monolayers of cells using RNAZol B (Teltest Inc., Friendswood, Tex.). Five μg of total RNA was used as template and 0.15 μg of random hexanucleotide primers were added for reverse transcription and amplification in a reaction volume of 20 μl, according to the manufacturer's instruction (Invitrogen, Carlsbad, Calif.). After RT reaction, 3-5 μl of the 1st-strand cDNA was used for PCR with a PTC-100 programmable Thermal Controller (MJ Research Inc.). The oligonucleotide primer sets used for PCR analysis of cDNA are: hOC, 5′-[…]-3′ (forward) and 5′-[…]-3′ (reverse); hBSP, 5′-[…]-3′ (forward) and 5′-[…]-3′ (reverse); and glyceraldehyde phosphate dehydrogenase (GAPDH), 5′-[…]-3′ (forward) and 5′-[…]-3′ (reverse), respectively. The thermal profile for hOC amplification is 30 cycles starting with denaturation 1 min at 94° C., followed by 1 min of annealing at 55° C. and 1 min of extension at 72° C. For hBSP amplification the thermal profile is 35 cycles starting with denaturation 1 min at 94° C., followed by 30 s of annealing at 48° C. and 40 s of extension at 72° C. The program for GAPDH amplification is 25 cycles starting with denaturation 30 s at 94° C., followed by 30 s of annealing at 60° C. and 1 min of extension at 72° C. The RT-PCR products were analyzed by 1.2% agarose gel electrophoresis. Quantity one-4.1.1 Gel Doc gel documentation software (Bio-Rad) or NIH image were used for quantification of hOC and hBSP mRNA expression normalized by GAPDH mRNA expression.
# [9] = test system: BSP mRNA; test: Semi-quantitative RT-PCR of endogenous BSP mRNA; format: cell-based, human; settings: FSK 10^−6 M, 12 h
# Method: as §4
# [10] = test system: hOC promoter; test: hOC promoter-luciferase reporter activity in transfected cells; format: cell-based, human; settings: C4-2B cells, 16 h
# Description: Plasmid Construction. Genomic DNA was used in the PCR of the 0.8-kb hOC promoter inserting KpnI and XhoI sites, subsequently cloned into pGL3-Basic-luciferase reporter vector (Promega, Madison, Wis.) as described before (9). The deletion constructs, ΔA [374 bp upstream of AP1/VDRE (AV) element], ΔTst-1 (POU-factor Tst-1/Oct-6 binding site), ΔCRE (cAMP-responsive element) and ΔIRF-1 (interferon regulatory factor-i binding site) in hOC promoter/pGL3 were generated by recombinant PCR technique. The point mutation plasmids in CRE (from -643 to -636 in hOC promoter, 5′-[…]-3′) were constructed with a QuikChange Site-Directed Mutagenesis Kit (Stratagene). The mutation constructs (see below) are one-point substitution mutants, Mut1 (-642 G→T), Mut2 (-641 A→C), Mut3 (-640 C→A), Mut4 (-639 C→A) and Mut5 (-638 T→G), a two-point substitution mutant, Mut6 (-640 and -639 CC→AA), and a two-point deletion construct, Mut7 (-640 and -639 CC→XX). The 1.5-kb hBSP promoter construct prepared in the pGL3-luciferase reporter vector has been described previously (36). The single deletion constructs ΔCRE1 (-79 to -72) and ΔCRE2 (-674 to -667), and a double deletion construct ΔCRE2/CRE1 in the hBSP promoter/pGL3-luciferase plasmid were generated by recombinant PCR technique. All plasmid constructs were confirmed by DNA sequencing.
# Transfection and Luciferase Activity Assay. Cells were trypsinized and seeded at a density of 1.5×10^5 cells/well (LNCaP, C4-2B, DU145 and ARCaP) and 1.0×10^5 cells/well (PC3 and MG63) in 12-well plates 24 h before transfection. Plasmid DNAs were introduced into cells by complexing with a commercial reagent DOTAP (Roche Molecular Biochemicals) according to the manufacturer's protocol. Each transfection reaction contained 1.25 μg of tested DNA constructs and 0.25 μg of the transfection efficiency control CMV promoter-driven β-galactosidase plasmid DNA. After 6 h transfection, DNA-liposome mixtures were replaced by fresh T-medium or CM. Tansfected cells were harvested and lysed in 1× Reporter Lysis buffer (Promega) after 36 h additional incubation. Cell lysates were vortexed for 15 s and spun for 10 min. For luciferase activity assay, 20 μl of the lysate supernatant was mixed with 100 μl of the luciferase substrate (Promega) and detected by a luminometer (Monolight 3010, luminometer PharMingen, San Diego, Calif.). For β-galactosidase activity assay, 100 μl of the supernatant was mixed with 100 μl of 2×β-galactosidase substrate [200 mM sodium phosphate buffer, pH 7.3, 2 mM MgCl2, 100 mM β-mercaptoethanol and 1.33 mg/ml o-nitrophenyl-β-D-galactopyranoside (ONPG)], and incubated at 37° C. for 30 min. β-galactosidase activity was detected by Microplate spectrophotometer (Molecular Devices Corp., Sunnyvale, Calif.) at 405 nm wavelength. Data were presented as normalized luciferase activity (means±standard deviations), defined as luciferase activity normalized to internal control β-galactosidase activity for transfection efficiency. All studies were performed in three independent experiments with duplicate assays.
# [11] = test system: hBSP promoter; test: hBSP promoter-luciferase reporter activity in transfected cells; format: cell-based, human; settings: C4-2B cells; db cAMP 10^−6 to 10^−3 M, FSK 10^−8 to 10^−5 M; 16 h; concentration-dependent
# Description: Plasmid Construction. Genomic DNA was used in the PCR of the 0.8-kb hOC promoter inserting KpnI and XhoI sites, subsequently cloned into pGL3-Basic-luciferase reporter vector (Promega, Madison, Wis.) as described before (9). The deletion constructs, ΔA [374 bp upstream of AP1/VDRE (AV) element], ΔTst-1 (POU-factor Tst-1/Oct-6 binding site), ΔCRE (cAMP-responsive element) and ΔIRF-1 (interferon regulatory factor-i binding site) in hOC promoter/pGL3 were generated by recombinant PCR technique. The point mutation plasmids in CRE (from -643 to -636 in hOC promoter, 5′-[…]-3′) were constructed with a QuikChange Site-Directed Mutagenesis Kit (Stratagene). […]
# Transfection and Luciferase Activity Assay. […] For luciferase activity assay, 20 μl of the lysate supernatant was mixed with 100 μl of the luciferase substrate (Promega) and detected by a luminometer (Monolight 3010, luminometer PharMingen, San Diego, Calif.). For β-galactosidase activity assay, 100 μl of the supernatant was mixed with 100 μl of 2×β-galactosidase substrate [200 mM sodium phosphate buffer, pH 7.3, 2 mM MgCl2, 100 mM β-mercaptoethanol and 1.33 mg/ml o-nitrophenyl-β-D-galactopyranoside (ONPG)], and incubated at 37° C. for 30 min. β-galactosidase activity was detected by Microplate spectrophotometer (Molecular Devices Corp., Sunnyvale, Calif.) at 405 nm wavelength. […]
compound,measurement,setting,value
"5′-UUCAUGUGUCUGUGGUGUU(dT)(dT)-3′ (siRNA; RNA, 3' dTdT, backbone not given here; scramble control, delivered in cationic liposome formulation SN) [scramble-siRNA]",b2M expression,[1],did not affect
same,cell proliferation,[2],did not affect
same,"growth of pre-established PC3-Luc tumors, Luc-imaging (BLI)",[3],not
same,PSA protein expression,[4],not
same,"growth of pre-established C4-2-Luc tumors, serum PSA",[5],not
same,AR protein expression,[6],not
"5′-UUGCUAUGUGUCUGGGUUU(dT)(dT)-3′ (siRNA; RNA, 3' dTdT, backbone not given here; delivered in cationic liposome formulation SN) [b2M-siRNA]",b2M expression,[1],inhibited
same,cell proliferation,[2],inhibited
same,growth of prostate cancer cells in vitro and tumor growth in bone on blocking β2M signaling,[2]; preliminary investigations,greatly attenuated
same,PSA protein expression,[4],abolished
same,cell attachment to collagen I (Col I),[7],no significant difference
same,cell attachment to collagen IV (Col IV),[7],decreased attachment
same,cell attachment to fibronectin (FN),[7],no significant difference
same,cell attachment to laminin (LM),[7],no significant difference
same,AR protein expression,[6],abolished
"C=C[C@@]1(C)CC(=O)[C@]2(O)[C@@]3(C)[C@@H](O)CCC(C)(C)[C@@H]3[C@H](O)[C@H](OC(C)=O)[C@@]2(C)O1 [FSK, forskolin]","steady-state level of OC mRNA, fold elevation",[8]; C4-2B cells,7.8 fold
same,"steady-state level of OC mRNA, fold elevation",[8]; LNCaP cells,5.2 fold
same,"level of BSP mRNA, fold increase",[9]; C4-2B cells,5.4 fold
same,"level of BSP mRNA, fold increase",[9]; LNCaP cells,3.2 fold
"CCCCCCCCCCCCCC(=O)O[C@@H]1[C@@H](C)[C@@]2(O)[C@@H](C=C(CO)C[C@]3(O)C(=O)C(C)=C[C@@H]23)[C@@H]2C(C)(C)[C@]12OC(C)=O [PMA, phorbol 12-myristate 13-acetate]","hOC promoter activity, induction by PKC pathway activator",[10]; PMA 10^−6 M,induced hOC promoter activity to a lesser extent
"CCCC(=O)Nc1ncnc2c1ncn2[C@@H]1O[C@@H]2COP(=O)(O)O[C@H]2[C@H]1OC(=O)CCC [db cAMP, dibutyryl 3′,5′-cyclic AMP]","hBSP promoter activity, effect of PKA pathway activators",[11],stimulated
same,"hOC promoter activity, effect of PKA pathway activators","[10]; db cAMP 10^−6 to 10^−3 M, FSK 10^−8 to 10^−5 M, concentration-dependent",stimulated
